Assay results: paper PMC6694155, “PTPσ inhibitors promote hematopoietic stem cell regeneration” (Nature Communications, 2019)
Values joined by “and” are separate entries in the source; they are usually repeats but may differ in a detail not shown here. Equal values may be shown once.

What was measured:
BM KSL cells [1] = assay: CFC assay from 300 cGy-irradiated BM KSL cells, 3 day culture; format: cell-based, mouse; parameters: CFU-GM / BFU-E: unit not given here
Description: CFC assays (colony-forming unit-granulocyte monocyte), burst-forming unit-erythroid, and CFU-GEMM were performed using MethoCult GF M3434 (Stemcell Technologies)[6]. […] Recombinant mouse SCF, Flt3 ligand, and TPO were purchased from R&D Systems. For competitive repopulation assays, BM cells were isolated from donor 10–12-week-old female CD45.2^+ mice. Recipient 10-week-old female CD45.1^+ B6.SJL mice were irradiated with 950 cGy TBI using a Cs137 irradiator and donor BM cells were administered via tail vein injection along with a competing dose of 1 × 10^5 non-irradiated host BM cells. Multilineage donor hematopoietic cell engraftment was measured in the PB by flow cytometry.

BCL-XL in BM KSL cells = assay: BCL-XL protein intracellular flow cytometry of BM KSL cells; format: cell-based, mouse; settings: BM KSL cells, 24 hours following 300 cGy, 43 ng/ml BVD523
Description: (§1) Intracellular flow cytometric analysis was performed on irradiated (300 cGy) or non-irradiated, sorted KSL cells after treatment with 1 μg/mL DJ001 or control (equal volumes of DMSO) for 24 h. At 24 h after irradiation, cells were fixed with 4% PFA for 10 min, followed by permeabilization using 0.25% saponin in PBS. Cells were washed again and stained with antibody at the recommended concentrations for 30 min at RT. Intracellular antibodies and phospho-flow antibodies used were as follows: FITC-conjugated anti-BCL-XL (Abcam, #26148, 1:100), active RAC1-GTP antibody (NewEast Biosciences, #26903, 1:100) and anti-PAK1 (phospho S144) + PAK2 (phospho S141) + PAK3 (phospho S154) antibody (Abcam, #40795, 1:100), and FITC-conjugated goat anti-rabbit IgG H&L (Abcam, #97050, 1:200).

C57BL/6 mice = assay: Survival study after 750 cGy TBI; format: in vivo, mouse; settings: 750 cGy, systemic EHT1864
Description: For survival studies, 10-week-old female C57BL/6 mice were irradiated with 750 cGy TBI, which is lethal for ~50% of C57BL/6 mice by day + 30 (LD50/30), using a Shepherd Cesium-137 irradiator. Twenty four hours post irradiation, mice were administered daily subcutaneous injections of 5 mg/kg DJ001 or DJ009, or vehicle in a volume of 100 μL for 10 days. DJ001 or DJ009 injections were prepared in PBS, 0.5% Tween 80, and 10% DMSO. Corresponding vehicle injections contained PBS, 10% DMSO, and 0.5% Tween 80. PB complete blood counts were measured using a Hemavet 950 instrument (Drew Scientific) at day + 10 post irradiation. For hematopoietic analysis, BM cells were collected at day + 10 post irradiation. To study whether DJ001 increased survival rates through activation of RAC signaling, the RAC inhibitor, EHT1864 (Selleckchem), was dissolved in PBS and administered intraperitoneally, 40 mg/kg every other day, to 750 cGy-irradiated mice until day + 10.

p-PAK1 in BM KSL cells = assay: p-PAK1 phospho-flow cytometry of BM KSL cells; format: cell-based, mouse; settings: BM KSL cells, DJ001 + 6 μg/mL EHT1864
Description: as §1

BM KSL cells [2] = assay: Annexin V/7AAD apoptosis assay of BM KSL cells from mice 24 h post 500 cGy TBI; format: in vivo, mouse
Description: (§2) Eight- to ten-week-old female C57BL/6 mice were irradiated with 500 cGy TBI followed by subcutaneous injections of 5 mg/kg DJ001 or vehicle, or 5 mg/kg DJ001 plus 40 mg/kg EHT1864. Twenty four hours after irradiation, mice were killed to collect BM cells for Annexin V apoptosis analysis. BM cells were stained with APC-Cy7-conjugated anti-mouse Sca1 (BD Biosciences, #560654, 1:100), PE-conjugated anti-ckit (BD Biosciences, #553355, 1:100), and V450 lineage cocktail (BD Biosciences, #561301, 1:10) antibodies for 30 min at 4 °C. Cells were then resuspended in 1× Annexin V binding buffer and then stained with FITC-conjugated anti-Annexin V antibody (BD Biosciences, #556547,1:50) and 7AAD antibody (BD Biosciences, #559925, 1:40)[68]. For in vitro human BM cell apoptosis assays, isolated human BM CD34^+ cells were plated into 96-well plates and then irradiated with 300 cGy. Immediately after irradiation, cells were treated with 5 μg/mL DJ001 or vehicle for 24 h and then collected for Annexin V cell apoptosis analysis. For cell cycle analysis, BM KSL cells were irradiated at 300 cGy and then treated with 1 μg/mL DJ001 or vehicle for 36 h. Subsequently, cells were resuspended in 200 μL of PBS, fixed with 1 mL of ice-cold fixation solution (0.25% Saponin, 2.5% PFA, 2% fetal calf serum (FCS) in PBS), and incubated for 30 min on ice. Cells were washed in Saponin buffer (0.25% Saponin, 2% FCS in PBS) and resuspended in 200 μL of Saponin buffer containing 20 μL of FITC-conjugated anti-Ki67 antibody (BD Biosciences, #556026, 1:10) and 1 μL of RNase (Qiagen, #19101, 100 mg/mL). After 30 min of incubation, cells were washed in Saponin buffer and resuspended for flow analysis in 200 μL of Saponin buffer containing 5 μL 7AAD (BD Biosciences, #559925, 1:40).

BM KSL cells [3] = assay: Cell cycle analysis (Ki67/7AAD) of BM KSL cells; format: cell-based, mouse; settings: BM KSL cells following irradiation
Description: as §2

catalytic domain of PTPσ = test system: catalytic domain of PTPσ; parameters: method as in PMID 23185579; settings: cited from earlier work

**Q.** Which results are given for `CC(C)Nc1cc(-c2c[nH]c(C(=O)N[C@H](CO)c3cccc(Cl)c3)c2)c(Cl)cn1` [BVD523, reference compound]?
**A.** effect on hematopoietic progenitor cell recovery following irradiation (BM KSL cells [1]; DJ001 + 43 ng/mL BVD523, 300 cGy, day +3): abrogated hematopoietic progenitor cell recovery; effect on DJ001-mediated increase in BCL-XL protein levels (BCL-XL in BM KSL cells): blocked DJ001-mediated increase in BCL-XL protein levels

**Q.** What does the source list for `O=c1cc(CN2CCOCC2)occ1OCCCCCSc1ccnc2cc(C(F)(F)F)ccc12` [EHT1864, reference compound]?
**A.** effect on DJ001-mediated CFC generation (BM KSL cells [1]; BM KSL cells irradiated with 300 cGy in vitro, 6 µg/ml EHT1864): inhibited DJ001-mediated CFC generation; BFU-E (BM KSL cells [1]; Supplementary Figure 7d): 1 and 2; CFU-GM (BM KSL cells [1]; Supplementary Figure 7d): 9 and 6 and 11 and 10 and 12; effect on DJ001-mediated increase in survival of irradiated mice (C57BL/6 mice): completely blocked DJ001-mediated increase in survival; effect on DJ001-mediated phosphorylation of PAK1 (p-PAK1 in BM KSL cells): abrogated DJ001-mediated phosphorylation of PAK1; Figure 3e: Annexin V/7AAD apoptosis of BM KSL cells (BM KSL cells [2]; 24 h post 500 cGy TBI, individual mice): 24.85 and 19.31 and 21.21 and 22.28; effect on DJ001-mediated anti-apoptotic effects on BM KSL cells (BM KSL cells [2]; irradiated mice): abrogated DJ001-mediated anti-apoptotic effects; effect on DJ001-mediated induction of cell cycle progression (BM KSL cells [3]): suppressed DJ001-mediated induction of cell cycle progression

**Q.** For `COc1ccc2c(c1)/C(=C/c1cnc[nH]1)C(=O)N2` [SU9516, reference compound], which “effect on DJ001-mediated induction of cell cycle progression” value (BM KSL cells [3]) is on record?
**A.** suppressed DJ001-mediated induction of cell cycle progression

**Q.** With `O=C(/C=C\Nc1cc([N+](=O)[O-])ccc1O)c1ccc(Cl)c(Cl)c1` [compound 5075, reference compound] as the compound, how does the “reported properties against the catalytic domain of PTPσ” value (catalytic domain of PTPσ) read?
**A.** binding and inhibitory properties
